Reference: patent US20230054976A1, “METHODS FOR INHIBITION OF ALPHA-SYNUCLEIN mRNA USING SMALL MOLECULES” (The Scripps Research Institute, priority 2019, published 2023)

System: SNCA mRNA
Assay: ASO-Bind-Map in cells (gapmer ASO, RT-qPCR)
Assay type: cell-based, human
Conditions: 200 nM, SH-SY5Y cells, RT-qPCR
Procedure: Mapping Synucleozid's binding site in cells with ASO-Bind-Map. SH-SY5Y cells were treated with vehicle (DMSO) or Synucleozid at 60% confluency overnight and were then transfected with a gapmer ASO (200 nM) with Lipofectamine RNAiMAX (Invitrogen) according to the manufacturer's instructions. Mock samples were generated by treating cells with transfection reagent lacking oligonucleotide. RNA extraction, cDNA synthesis and RT-qPCR were performed as described above after 48 h. Primers for SNCA mRNA in this experiment cover sequences upstream and downstream of the IRE; forward primer: [NT]; reverse primer [NT].

Substance | reduction of SNCA mRNA levels by gapmer
5′-TCCTTTACACC-3′ (2'-MOE phosphorothioate gapmer, further chemistry not given here) [ASO(29-39), reference compound] | ~50%
5′-CACTCCCAGT-3′ (2'-MOE phosphorothioate gapmer, further chemistry not given here) [ASO(1-10), reference compound] | ~50%
